# “And” between values parts separate entries of the source, which are not always exact repeats. Identical values can stand only once. Toxic doses and inconclusive results are not listed.
# System: L1210 leukemia ip in BDF1 mice, survival T/C
# Experiment: NCI In Vivo Anticancer Drug Screen. Data for tumor model L1210 Leukemia (intraperitoneal) in B6D2F1 (BDF1) mice
# Conditions: endpoint: mean survival time, higher = longer survival
# Procedure, shortened: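 Each compound was tested against a transplantable tumor grown in mice. The endpoint was survival, with treated animals benchmarked against vehicle controls as a simple ratio.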
# [1] = dose: 100.0 mg/kg/injection, schedule: Q01DX001 (ip), vehicle: carboxymethylcellulose (CMC)
# [2] = dose: 200.0 mg/kg/injection, schedule: Q01DX001 (ip), vehicle: carboxymethylcellulose (CMC)
# [3] = dose: 400.0 mg/kg/injection, schedule: Q01DX001 (ip), vehicle: carboxymethylcellulose (CMC)
# [4] = dose: 100.0 mg/kg/injection, schedule: Q04DX003 (ip), vehicle: saline with Tween-80
# [5] = dose: 200.0 mg/kg/injection, schedule: Q04DX003 (ip), vehicle: saline with Tween-80
# [6] = dose: 400.0 mg/kg/injection, schedule: Q04DX003 (ip), vehicle: saline with Tween-80
# [7] = dose: 100.0 mg/kg/injection, schedule: Q04DX002 (ip), vehicle: saline with Tween-80
# [8] = dose: 100.0 mg/kg/injection, schedule: Q01DX001 (ip), vehicle: saline with Tween-80
# [9] = dose: 100.0 mg/kg/injection, schedule: Q01DX009 (ip), vehicle: saline with Tween-80
# [10] = dose: 200.0 mg/kg/injection, schedule: Q01DX001 (ip), vehicle: saline with Tween-80
# [11] = dose: 400.0 mg/kg/injection, schedule: Q01DX001 (ip), vehicle: saline with Tween-80
# [12] = dose: 100.0 mg/kg/injection, schedule: Q04DX003 (ip), vehicle: saline
# [13] = dose: 200.0 mg/kg/injection, schedule: Q04DX003 (ip), vehicle: saline
# [14] = dose: 400.0 mg/kg/injection, schedule: Q04DX003 (ip), vehicle: saline
# [15] = dose: 100.0 mg/kg/injection, schedule: Q01DX001 (ip), vehicle: Klucel (hydroxypropylcellulose) (HPC)
# [16] = dose: 200.0 mg/kg/injection, schedule: Q01DX001 (ip), vehicle: Klucel (hydroxypropylcellulose) (HPC)
# [17] = dose: 400.0 mg/kg/injection, schedule: Q01DX001 (ip), vehicle: Klucel (hydroxypropylcellulose) (HPC)
# [18] = dose: 100.0 mg/kg/injection, schedule: Q04DX002 (ip), vehicle: Klucel (hydroxypropylcellulose) (HPC)
# [19] = dose: 200.0 mg/kg/injection, schedule: Q04DX002 (ip), vehicle: Klucel (hydroxypropylcellulose) (HPC)
# [20] = dose: 400.0 mg/kg/injection, schedule: Q04DX002 (ip), vehicle: Klucel (hydroxypropylcellulose) (HPC)
# [21] = dose: 100.0 mg/kg/injection, schedule: Q01DX009 (ip), vehicle: Klucel (hydroxypropylcellulose) (HPC)
# [22] = dose: 100.0 mg/kg/injection, schedule: Q04DX003 (ip), vehicle: Klucel (hydroxypropylcellulose) (HPC)
# [23] = dose: 200.0 mg/kg/injection, schedule: Q01DX009 (ip), vehicle: Klucel (hydroxypropylcellulose) (HPC)
# [24] = dose: 200.0 mg/kg/injection, schedule: Q04DX003 (ip), vehicle: Klucel (hydroxypropylcellulose) (HPC)
# [25] = dose: 400.0 mg/kg/injection, schedule: Q04DX003 (ip), vehicle: Klucel (hydroxypropylcellulose) (HPC)
structure (smiles),measurement,setting,value
O=CNc1cccc2c1-c1ccccc1C2=O,T/C,[1],96 % of control
same,T/C,[2],91 % of control
same,T/C,[3],99 % of control
Cc1ccc(NCc2nc(N)nc(Nc3ccc(C)cc3)n2)cc1,T/C,[4],93 % of control
same,T/C,[5],101 % of control
same,T/C,[6],97 % of control
Clc1ccc(CC[PH+]2CC=CC2)cc1.Clc1ccc(CC[PH+]2CC=CC2)cc1.[Cl][Ni][Cl],T/C,[7],107 % of control
CSc1ccc(OC(=O)Nc2cc(Cl)ccc2C)cc1,T/C,[8],98 % of control
same,T/C,[9],95 % of control and 98 % of control
same,T/C,[7],97 % of control
same,T/C,[4],96 % of control
same,T/C,[10],96 % of control
same,T/C,"dose: 200.0 mg/kg/injection, schedule: Q01DX009 (ip), vehicle: saline with Tween-80",96 % of control and 103 % of control
same,T/C,"dose: 200.0 mg/kg/injection, schedule: Q04DX002 (ip), vehicle: saline with Tween-80",94 % of control and 101 % of control
same,T/C,[5],98 % of control
same,T/C,[11],93 % of control
same,T/C,"dose: 400.0 mg/kg/injection, schedule: Q04DX002 (ip), vehicle: saline with Tween-80",94 % of control and 105 % of control
CCO/C(C)=N/N(C)c1n[n+]([O-])ccc1C,T/C,"dose: 100.0 mg/kg/injection, schedule: Q04DX002 (ip), vehicle: saline",189 % of control
same,T/C,"dose: 200.0 mg/kg/injection, schedule: Q04DX002 (ip), vehicle: saline",96 % of control
same,T/C,"dose: 400.0 mg/kg/injection, schedule: Q04DX002 (ip), vehicle: saline",96 % of control
Nc1nc2c(ncn2CCC(N)C(=O)O)c(=O)[nH]1 (configuration not stated),T/C,[12],104 % of control
same,T/C,[13],98 % of control
same,T/C,[14],107 % of control
COc1cc(C)c(NC(=O)Oc2ccccc2)c(C)c1,T/C,[4],89 % of control
same,T/C,[5],91 % of control
same,T/C,[6],91 % of control
CC(C)CCOc1ccc(C(N)=S)c2ccccc12,T/C,[15],112 % of control
same,T/C,[16],112 % of control
same,T/C,[17],102 % of control
CC1(C(=O)O)NCCS1 (configuration not stated),T/C,[1],95 % of control
same,T/C,[2],90 % of control
same,T/C,[3],90 % of control
COC(=O)C1C2CCC(C2)C1C(=O)OC (configuration not stated),T/C,[18],111 % of control
same,T/C,[19],93 % of control
same,T/C,[20],107 % of control
Cn1c(O)c(N=Nc2ccccc2[N+](=O)[O-])c2ccccc21,T/C,"dose: 100.0 mg/kg/injection, schedule: Q01DX001 (ip), vehicle: other",95 % of control
same,T/C,"dose: 200.0 mg/kg/injection, schedule: Q01DX001 (ip), vehicle: other",90 % of control
same,T/C,"dose: 400.0 mg/kg/injection, schedule: Q01DX001 (ip), vehicle: other",95 % of control
COC(=O)C1C(C(=O)OC)C1(c1ccccc1)c1ccccc1 (configuration not stated),T/C,"dose: 100.0 mg/kg/injection, schedule: Q01DX001 (ip), vehicle: steriod suspending solution",95 % of control
same,T/C,"dose: 200.0 mg/kg/injection, schedule: Q01DX001 (ip), vehicle: steriod suspending solution",112 % of control
same,T/C,"dose: 400.0 mg/kg/injection, schedule: Q01DX001 (ip), vehicle: steriod suspending solution",95 % of control
C/C(=C\c1ccccc1Cl)[N+](=O)[O-],T/C,[21],95 % of control
same,T/C,[22],100 % of control
same,T/C,[23],93 % of control
same,T/C,[24],96 % of control
same,T/C,[25],105 % of control
COC1=CC(C)C2CC3OC(O)CC4C(C)=C(OC)C(=O)C(C2(C)C1=O)C34C (configuration not stated),T/C,[15],102 % of control
same,T/C,[21],91 % of control
same,T/C,[22],96 % of control
same,T/C,[16],105 % of control
same,T/C,[23],100 % of control
same,T/C,[24],97 % of control
same,T/C,[17],105 % of control
same,T/C,"dose: 400.0 mg/kg/injection, schedule: Q01DX009 (ip), vehicle: Klucel (hydroxypropylcellulose) (HPC)",94 % of control
same,T/C,[25],96 % of control
CC(=O)OC(=O)C1C2CC3C(C2)C31 (configuration not stated),T/C,"dose: 6.25 mg/kg/injection, schedule: Q01DX009 (ip), vehicle: other",101 % of control
same,T/C,"dose: 12.5 mg/kg/injection, schedule: Q01DX009 (ip), vehicle: other",97 % of control
same,T/C,"dose: 25.0 mg/kg/injection, schedule: Q01DX009 (ip), vehicle: other",93 % of control
CN(N=O)C(=O)NCCSc1nc2ncncc2[nH]1,T/C,"dose: 31.0 mg/kg/injection, schedule: Q01DX001 (ip), vehicle: carboxymethylcellulose (CMC)",87 % of control
same,T/C,"dose: 62.0 mg/kg/injection, schedule: Q01DX001 (ip), vehicle: carboxymethylcellulose (CMC)",103 % of control
same,T/C,"dose: 93.0 mg/kg/injection, schedule: Q01DX001 (ip), vehicle: carboxymethylcellulose (CMC)",106 % of control
same,T/C,"dose: 187.0 mg/kg/injection, schedule: Q01DX001 (ip), vehicle: carboxymethylcellulose (CMC)",103 % of control
same,T/C,"dose: 250.0 mg/kg/injection, schedule: Q01DX001 (ip), vehicle: carboxymethylcellulose (CMC)",103 % of control
same,T/C,"dose: 500.0 mg/kg/injection, schedule: Q01DX001 (ip), vehicle: carboxymethylcellulose (CMC)",115 % of control
same,T/C,"dose: 750.0 mg/kg/injection, schedule: Q01DX001 (ip), vehicle: carboxymethylcellulose (CMC)",123 % of control
same,T/C,"dose: 1000.0 mg/kg/injection, schedule: Q01DX001 (ip), vehicle: carboxymethylcellulose (CMC)",117 % of control
CCC[n+]1c(C)oc2ccc(-c3ccccc3)cc21,T/C,"dose: 50.0 mg/kg/injection, schedule: Q01DX009 (ip), vehicle: saline with Tween-80",97 % of control
same,T/C,[8],94 % of control
same,T/C,[9],101 % of control
same,T/C,[10],99 % of control
same,T/C,[11],90 % of control
CC(=O)c1ccc(CCCC2CCCC2)cc1,T/C,[18],88 % of control
same,T/C,[19],91 % of control
same,T/C,[20],91 % of control
Clc1ccc(Cc2ccc(Cl)cc2)cc1,T/C,[1],107 % of control
same,T/C,[2],100 % of control
same,T/C,[3],102 % of control
CCOc1ccc(/C=N\N=C\c2ccc(OCC)cc2)cc1,T/C,[21],89 % of control
same,T/C,[22],93 % of control
same,T/C,[25],97 % of control
COc1cc(C=NC(CO)C(=O)O)ccc1O.COc1cc(C=NC(CO)C(=O)O)ccc1O.[Fe] (configuration not stated),T/C,"dose: 100.0 mg/kg/injection, schedule: Q01DX009 (ip), vehicle: saline",92 % of control
same,T/C,[12],88 % of control
same,T/C,"dose: 200.0 mg/kg/injection, schedule: Q01DX009 (ip), vehicle: saline",92 % of control
same,T/C,[13],95 % of control
same,T/C,"dose: 400.0 mg/kg/injection, schedule: Q01DX009 (ip), vehicle: saline",95 % of control
same,T/C,[14],93 % of control
CCOC(=O)CN1CC(C)(C)N(CC(=O)OCC)CC1(C)C,T/C,[1],93 % of control
same,T/C,[2],93 % of control
same,T/C,[3],104 % of control
O=C(O)c1ccccc1C(=O)c1ccc(F)cc1,T/C,"dose: 100.0 mg/kg/injection, schedule: Q01DX001 (ip), vehicle: saline",96 % of control
same,T/C,"dose: 200.0 mg/kg/injection, schedule: Q01DX001 (ip), vehicle: saline",102 % of control
same,T/C,"dose: 400.0 mg/kg/injection, schedule: Q01DX001 (ip), vehicle: saline",93 % of control
